Like-named read-outs stand apart in the source and are kept apart here.
How the values were obtained:
HIV-1 IIIB (wild-type) = experiment: HIV inhibition assay in TZM-bl cells, wild-type; assay type: cell-based; conditions: Human immunodeficiency virus 1, IIIB, read-out: IC50 (TZM, WT)
Protocol: (§1) Cells and virus culture: TZM-bl cells (42), HIV-1 IIIB virus (43-45) and HIV-1 IIIB (A17 variant) virus (46) as well are the NNRTI resistant mutants (strain NL4-3) (47) were obtained from the NIH HIV Reagent Program. H9 [derivative of HuT 78]cells (ATCC® HTB176™) were obtained from the American Type Culture Collection (Manassas, Virginia, United States of America). These viruses were grown in H9 cells to high titer, which was tested using a HIV p24 (high sensitivity) The detection kit used was sold under the tradename ALPHALISA® Detection Kit (PerkinElmer, Waltham, Massachusetts, United States of America). The viruses were concentrated using Lenti-X Concentrator (Takara Bio USA, Inc., Mountain View, California, United States of America). Infections of TZM-bl cells with either virus was facilitated with 15 μg/mL DEAE-dextran.
(§2) Compounds were serially diluted starting with 10 mM stocks in DMSO. DMSO concentrations were kept the same for all dilutions used within an assay (either 0.005% or 0.05% depending on highest concentration used). Duplicate 96-well plates were set up with 25 μL compound dilution, 25 μL virus, and 50 μL TZM-bl cells (2×10^5/mL) with DEAE-dextran and incubated at 37° C. 5% CO2 for 48 hr. All compounds were tested in triplicate, with single wells of efavirenz dilutions on each plate. All plates had 3-5 control wells without compound, 1 control well with no cells, and 1 control well with a highly toxic level of DMSO (9%). Inhibition assays were set up in clear tissue-culture treated plates with lysates moved to black assay plates or were set up in black tissue culture-treated plates. Medium was removed and the cells were lysed with Glo Lysis Buffer (Promega, Madison, Wisconsin, United States of America). Luciferase Assay System reagent (Promega, Madison, Wisconsin, United States of America) was added to cells and relative light units (RLU) was measured using an EnSpire instrument (PerkinElmer, Waltham, Massachusetts, United States of America). Toxicity assays were set up in clear tissue culture-treated plates. CellTiter-Blue Cell Viability Assay reagent (Promega) was added to the wells after 46 hr incubation, followed by 2 hr incubation. Sodium lauryl sulfate was added to 1.5% to stop the reaction and the plates were measured for fluorescence (560 nmEx/590 nmEm) using an EnSpire instrument (PerkinElmer, Waltham, Massachusetts, United States of America).

[1] = tested on: HIV-1 IIIB A17 variant (Y181C/K103N); experiment: HIV inhibition assay in TZM-bl cells, A17 variant; assay type: cell-based; conditions: Human immunodeficiency virus 1, IIIB, TZM-bl
Protocol: as §1, §2

[2] = target: T1, HIV I reverse transcriptase (Human immunodeficiency virus type 1 group M subtype B, UniProt P03366); experiment: Reverse transcriptase inhibition assay (Roche kit, ELISA); assay type: biochemical
T1 construct: purchased Roche
Protocol: NNRTI assay methods: Inhibition of HIV I reverse transcriptase was assessed via a kit from Roche (Indianapolis-Marion County, Indiana, United States of America) using the manufacture's protocol (500 μM final reverse transcriptase reaction amount). […] DMSO concentrations were kept the same for all dilutions used within an assay (0.05%). Final compound concentrations ranged from 5000 nM-0.05 nM with 2-fold serial dilutions. 96-well plates were set up with 20 μL compound dilution, 20 μL reverse transcriptase, and 20 μL template/nucleotides and incubated at 37° C. 5% CO2 for 1 hr in a reaction plate. 50 μL of each reaction was then transferred to a streptavidin conjugated 96-well plate and an ELISA assay was run based on manufacture's protocol. All compounds were tested in sextuplicate, with single wells of efavirenz dilutions on each plate.

[3] = Toxicity assay in TZM-bl cells; assay type: cell-based; conditions: human
Protocol: as §2

TZM-bl cells = experiment: Toxicity assay in TZM-bl cells; assay type: cell-based
Protocol: as §2

[4] = Table 3, TZM-bl, ± SEM, minimum 6 replicates
[5] = read-out: IC50 (TZM, A17), Table 3, TZM-bl, ± SEM, minimum 6 replicates
[6] = read-out: IC50 (TZM, A17), Table 4, TZM-bl

Compound | IC50 (HIV-1 IIIB (wild-type); [4]) | IC50 [1, 5] | Qualitative Cell Toxicity within inhibition range (TZM-bl cells) | also measured
N#Cc1ccc(Nc2nc(N)n(S(=O)(=O)c3cccc4cc(C#N)ccc34)n2)cc1 [Compound 2, 5-[[5-amino-3-(4-cyanoanilino)-1,2,4-triazol-1-yl]sulfonyl]naphthalene-2-carbonitrile] | 1.11 ± 0.198 nM | 55 ± 4.01 nM | None | IC50 (HIV-1 IIIB (wild-type); Table 4, TZM-bl): 0.316 nM; IC50 [1, 6]: 24.4 nM; EC50 [2]: 578 nM; CC50 at 48 h [3]: 7550 nM; Quantitative Cell Toxicity (TZM-bl cells; human, 48 h): 578 nM
N#Cc1ccc2c(S(=O)(=O)n3nc(Nc4ccc(C#N)c(Cl)c4)nc3N)cccc2c1 [Compound 5, 5-[[5-amino-3-(3-chloro-4-cyano-anilino)-1,2,4-triazol-1-yl]sulfonyl]naphthalene-2-carbonitrile] | 0.42 ± 0.0777 nM | 39.6 ± 18.2 nM | – | IC50 (HIV-1 IIIB (wild-type); Table 4, TZM-bl): 0.428 nM; IC50 [1, 6]: 15.7 nM; EC50 [2]: 1710 nM; CC50 at 48 h ([3]; Table 4, TZM-bl, read-out: CC50 (TZM)): 6010 nM; Qualitative Cell Toxicity within inhibition range (TZM-bl cells; Table 3, TZM-bl): None; Quantitative Cell Toxicity (TZM-bl cells; Table 3, TZM-bl): 1710 nM
N#Cc1ccc2c(S(=O)(=O)n3nc(Nc4ccc(C#N)c(C#N)c4)nc3N)cccc2c1 [Compound 14, 4-[[5-amino-1-[(6-cyano-1-naphthyl)sulfonyl]-1,2,4-triazol-3-yl]amino]phthalonitrile] | 0.684 ± 0.077 nM | 37.2 ± 15.4 nM | None | IC50 (HIV-1 IIIB (wild-type); Table 4, TZM-bl): 0.318 nM; IC50 [1, 6]: 31.7 nM; EC50 [2]: 1350 nM; CC50 at 48 h [3]: 31800 nM; Quantitative Cell Toxicity (TZM-bl cells; human, 48 h): 1350 nM
CC(=O)Nc1nc(C)c(S(=O)(=O)n2nc(Nc3ccc(CC#N)cc3)nc2N)s1 [Compound 50, N-[5-[[5-amino-3-[4-(cyanomethyl)anilino]-1,2,4-triazol-1-yl]sulfonyl]-4-methyl-thiazol-2-yl]acetamide] | 19.4 ± 3.8 nM | > 1000 nM | None | –
N#Cc1ccc(Nc2nc(N)n(S(=O)(=O)c3c(Cl)nc4sccn34)n2)cc1C#N [Compound 51, 4-[[5-amino-1-(6-chloroimidazo[2,1-b]thiazol-5-yl)sulfonyl-1,2,4-triazol-3-yl]amino]-phthalonitrile] | 0.223 ± 0.055 nM | > 1000 nM | None | –
N#Cc1ccc2c(S(=O)(=O)n3nc(Nc4c(Cl)cc(Cl)cc4Cl)nc3N)cccc2c1 [Compound 42, 5-[[5-amino-3-(2,4,6-trichloroanilino)-1,2,4-triazol-1-yl]sulfonyl]naphthalene-2-carbonitrile] | 28.1 ± 6.75 nM | > 1000 nM | None | –
N#CCc1ccc(Nc2nc(N)n(S(=O)(=O)c3cnc(Cl)nc3)n2)cc1 [Compound 49, 2-[4-[[5-amino-1-(2-chloropyrimidin-5-yl)sulfonyl-1,2,4-triazol-3-yl]amino]phenyl]-acetonitrile] | 108 ± 31.8 nM | > 1000 nM | None | –
N#CCc1ccc(Nc2nc(N)n(S(=O)(=O)c3cccc4cc(C#N)ccc34)n2)cc1 [Compound 13, 5-[[5-amino-3-[4-(cyanomethyl)anilino]-1,2,4-triazol-1-yl]sulfonyl]naphthalene-2-carbonitrile] | 0.277 ± 0.0367 nM | 42.9 ± 34.7 nM | None | –
N#C/C=C/c1ccc(Nc2nc(N)n(S(=O)(=O)c3cccc4cc(C#N)ccc34)n2)cc1 [Compound 10, 5-[[5-amino-3-[4-[(E)-2-cyanovinyl]anilino]-1,2,4-triazol-1-yl]sulfonyl]naphthalene-2-carbonitrile] | 1.52 ± 0.307 nM | 215 ± 57.4 nM | None | –
Nc1nc(Nc2ccc(Cl)cc2)nn1S(=O)(=O)c1ccc(Br)cc1F [Compound 7, 1-(4-bromo-2-fluoro-phenyl)sulfonyl-N3-(4-chlorophenyl)-1,2,4-triazole-3,5-diamine] | 19.2 ± 2.83 nM | 562 nM | None | –
Nc1nc(Nc2ccc(Cl)c(Cl)c2)nn1S(=O)(=O)c1cccc2ccccc12 [Compound 22, N3-(3,4-dichlorophenyl)-1-(1-naphthylsulfonyl)-1,2,4-triazole-3,5-diamine] | – | > 1000 nM | – | IC50 (HIV-1 IIIB (wild-type)): 4.68 ± 0.572 nM; Qualitative Cell Toxicity within inhibition range (TZM-bl cells; Table 3, TZM-bl): None
CC(C)(C)c1ccc(S(=O)(=O)n2nc(Nc3ccc(Cl)cc3)nc2N)cc1 [Compound 6, 1-(4-tert-butylphenyl)sulfonyl-N3-(4-chlorophenyl)-1,2,4-triazole-3,5-diamine] | 70.2 ± 10.5 nM | 295 ± 56.5 nM | None | –
N#Cc1ccc(Nc2nc(N)n(S(=O)(=O)c3cccc4nc(Cl)ccc34)n2)c(Cl)c1 [Compound 46, 4-[[5-amino-1-[(2-chloro-5-quinolyl)sulfonyl]-1,2,4-triazol-3-yl]amino]-3-chloro-benzonitrile] | 394 ± 264 nM | > 1000 nM | None | –
Cc1c(S(=O)(=O)n2nc(Nc3ccc(C#N)cc3)nc2N)sc2ccc(Cl)cc12 [Compound 48, 4-[[5-amino-1-(5-chloro-3-methyl-benzothiophen-2-yl)sulfonyl-1,2,4-triazol-3-yl]amino]benzonitrile] | 14 ± 2.44 nM | > 1000 nM | None | –
Cc1cc(S(=O)(=O)n2nc(Nc3ccc(Cl)nc3)nc2N)c(C)cc1Cl [Compound 27, 1-(4-chloro-2,5-dimethyl-phenyl)sulfonyl-N3-(6-chloro-3-pyridyl)-1,2,4-triazole-3,5-diamine] | 34.3 ± 9.91 nM | > 1000 nM | None | –
COc1ccc(Cl)cc1S(=O)(=O)n1nc(Nc2ccc(Cl)cc2)nc1N [Compound 38, 1-(5-chloro-2-methoxy-phenyl)sulfonyl-N3-(4-chlorophenyl)-1,2,4-triazole-3,5-diamine] | 177 ± 73.1 nM | > 1000 nM | None | –
Cc1nc(C)c(S(=O)(=O)n2nc(Nc3ccc(C#N)c(Cl)c3)nc2N)s1 [Compound 12, 4-[[5-amino-1-(2,4-dimethylthiazol-5-yl)sulfonyl-1,2,4-triazol-3-yl]amino]-2-chloro-benzonitrile] | – | 306 ± 107 nM | – | IC50 (HIV-1 IIIB (wild-type)): 0.879 ± 0.072 nM; Qualitative Cell Toxicity within inhibition range (TZM-bl cells; Table 3, TZM-bl): None
N#C/C=C/c1ccc2c(S(=O)(=O)n3nc(Nc4ccc(CC#N)cc4)nc3N)cccc2c1 [Compound 21, 3-[5-[[5-amino-3-[4-(cyanomethyl)anilino]-1,2,4-triazol-1-yl]sulfonyl]-2-naphthyl]prop-2-enenitrile] | 0.255 ± 0.035 nM | 5.42 ± 1.39 nM | None | IC50 (HIV-1 IIIB (wild-type); Table 4, TZM-bl): 0.228 nM; IC50 [1, 6]: 13.8 nM; EC50 [2]: 10900 nM; CC50 at 48 h [3]: 747 nM; Quantitative Cell Toxicity (TZM-bl cells; human, 48 h): 747 nM

From patent US20250179033A1 (priority 2021, published 2025)
